Measurements: patent publication US7872018B2, “Compounds and methods for kinase modulation, and indications therefor” (Plexxikon, Inc., priority 2006, dated 2011)

What was measured:
Flt1 = Flt1 (Homo sapiens, UniProt P17948); assay: Flt1 kinase activity assay; type: biochemical; details: under the test conditions employed; read-out: IC50 toward kinase Flt1
Fms = target: T1, Fms (Homo sapiens, UniProt P07333); assay: Fms biochemical assay (AlphaScreen or 33P-ATP); details: under the test conditions employed; read-out: IC50 toward kinase Fms
T1 construct: purchased Upstate Biotech 14-551
Description: Each sample was at 5% DMSO.

Kdr = Kdr (Homo sapiens, UniProt P35968); assay: Kdr kinase activity assay; type: biochemical; details: under the test conditions employed; read-out: IC50 toward kinase Kdr
Kit = target: T2, Kit (Homo sapiens, UniProt P10721); assay: c-kit biochemical assay (AlphaScreen or 33P-ATP); details: under the test conditions employed; read-out: IC50 toward kinase Kit
T2 construct: P1332.N6 BI PTP KIT M552-K948-X COD; made in house; host or cells: E. coli BL21(DE3)RIL, co-expressed with PTP1B
How it was run: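 Kinase activity read by AlphaScreen or 33P-ATP incorporation, with c-kit enzyme at 1 ng per sample. The enzyme was either commercial or a recombinant human kit construct made from a gene-synthesized coding sequence.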

Src = Src (Homo sapiens, UniProt P12931); assay: Src kinase activity assay; type: biochemical; details: under the test conditions employed; read-out: IC50 toward kinase Src
TrkA = target: T3, TrkA (Homo sapiens, UniProt P04629); assay: TrkA biochemical assay (AlphaScreen); details: under the test conditions employed; read-out: IC50 toward kinase TrkA
T3 construct: purchased Upstate Biotech 14-571
Description: Compounds tested were dissolved in DMSO (1 μL) and added to a white 384-well plate (Costar #3705). […] Each sample was at 5% DMSO. The plate was then incubated for 40 minutes at room temperature.

HGK = HGK (Homo sapiens, UniProt O95819); assay: HGK (MAP4K4) biochemical assay (AlphaScreen); details: under the test conditions employed; read-out: IC50 toward kinase HGK
How it was run: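 AlphaScreen kinase assay with 0.5 ng MAP4K4 per sample and 10 nM biotin-ERM substrate, reacted 40 min at room temperature. Stopped with EDTA buffer containing phospho-ERM antibody (1:1000) plus donor and protein A acceptor beads (1 μg/ml final); signal tracks substrate phosphorylation.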

B-Raf V600E/T529I = B-Raf V600E/T529I (Homo sapiens, UniProt P15056, T529I/V600E); assay: B-Raf V600E/T529I kinase activity assay; type: biochemical; details: under the test conditions employed; read-out: IC50 toward kinase B-Raf V600E/T529I
B-Raf = B-Raf (Homo sapiens, UniProt P15056); assay: B-Raf kinase activity assay; type: biochemical; details: under the test conditions employed; read-out: IC50 toward kinase B-Raf
Btk = Btk (Homo sapiens, UniProt Q06187); assay: Btk kinase activity assay; type: biochemical; details: under the test conditions employed; read-out: IC50 toward kinase Btk
FGFR = FGFR (Homo sapiens, UniProt P11362); assay: FGFR kinase activity assay; type: biochemical; details: under the test conditions employed; read-out: IC50 toward kinase FGFR
Met = Met (Homo sapiens, UniProt P08581); assay: Met kinase activity assay; type: biochemical; details: under the test conditions employed; read-out: IC50 toward kinase Met
Jnk1 = Jnk1 (Homo sapiens, UniProt P45983); assay: Jnk1 kinase activity assay; type: biochemical; details: under the test conditions employed; read-out: IC50 toward kinase Jnk1
B-Raf V600E = B-Raf V600E (Homo sapiens, UniProt P15056, V600E); assay: B-Raf V600E kinase activity assay; type: biochemical; details: under the test conditions employed; read-out: IC50 toward kinase B-Raf V600E
c-Raf-1 = c-Raf-1 (Homo sapiens, UniProt P04049); assay: c-Raf-1 kinase activity assay; type: biochemical; details: under the test conditions employed; read-out: IC50 toward kinase c-Raf-1
Fak = Fak (Homo sapiens, UniProt Q05397); assay: Fak kinase activity assay; type: biochemical; details: under the test conditions employed; read-out: IC50 toward kinase Fak

Measured: IC50

T1 sequence (P07333 20-972): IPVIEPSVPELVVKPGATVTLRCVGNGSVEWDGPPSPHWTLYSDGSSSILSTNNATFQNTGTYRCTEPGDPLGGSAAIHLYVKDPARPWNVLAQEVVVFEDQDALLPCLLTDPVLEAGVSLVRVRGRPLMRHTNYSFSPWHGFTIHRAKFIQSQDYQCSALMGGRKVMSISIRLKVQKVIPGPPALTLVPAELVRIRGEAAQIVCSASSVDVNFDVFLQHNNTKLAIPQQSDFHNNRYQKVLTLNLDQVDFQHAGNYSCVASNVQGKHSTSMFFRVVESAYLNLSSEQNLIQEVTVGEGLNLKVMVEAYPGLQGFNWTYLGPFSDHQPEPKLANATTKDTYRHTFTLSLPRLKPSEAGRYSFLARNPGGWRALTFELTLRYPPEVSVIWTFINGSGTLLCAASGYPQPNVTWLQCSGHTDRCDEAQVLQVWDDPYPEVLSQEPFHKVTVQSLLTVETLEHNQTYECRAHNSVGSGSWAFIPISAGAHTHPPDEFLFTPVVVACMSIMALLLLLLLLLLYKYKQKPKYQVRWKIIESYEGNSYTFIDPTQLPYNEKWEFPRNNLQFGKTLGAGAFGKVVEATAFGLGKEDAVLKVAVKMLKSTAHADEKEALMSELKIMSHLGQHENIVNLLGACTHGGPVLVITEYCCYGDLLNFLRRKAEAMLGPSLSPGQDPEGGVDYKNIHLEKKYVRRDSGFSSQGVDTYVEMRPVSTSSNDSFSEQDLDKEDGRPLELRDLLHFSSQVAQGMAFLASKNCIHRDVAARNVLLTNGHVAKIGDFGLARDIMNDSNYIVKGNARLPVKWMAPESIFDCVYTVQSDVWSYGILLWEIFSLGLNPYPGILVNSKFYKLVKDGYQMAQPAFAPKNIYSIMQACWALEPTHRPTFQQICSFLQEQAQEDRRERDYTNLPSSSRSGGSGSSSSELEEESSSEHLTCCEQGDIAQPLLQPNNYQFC
Sequence of Kdr (P35968 20-1356): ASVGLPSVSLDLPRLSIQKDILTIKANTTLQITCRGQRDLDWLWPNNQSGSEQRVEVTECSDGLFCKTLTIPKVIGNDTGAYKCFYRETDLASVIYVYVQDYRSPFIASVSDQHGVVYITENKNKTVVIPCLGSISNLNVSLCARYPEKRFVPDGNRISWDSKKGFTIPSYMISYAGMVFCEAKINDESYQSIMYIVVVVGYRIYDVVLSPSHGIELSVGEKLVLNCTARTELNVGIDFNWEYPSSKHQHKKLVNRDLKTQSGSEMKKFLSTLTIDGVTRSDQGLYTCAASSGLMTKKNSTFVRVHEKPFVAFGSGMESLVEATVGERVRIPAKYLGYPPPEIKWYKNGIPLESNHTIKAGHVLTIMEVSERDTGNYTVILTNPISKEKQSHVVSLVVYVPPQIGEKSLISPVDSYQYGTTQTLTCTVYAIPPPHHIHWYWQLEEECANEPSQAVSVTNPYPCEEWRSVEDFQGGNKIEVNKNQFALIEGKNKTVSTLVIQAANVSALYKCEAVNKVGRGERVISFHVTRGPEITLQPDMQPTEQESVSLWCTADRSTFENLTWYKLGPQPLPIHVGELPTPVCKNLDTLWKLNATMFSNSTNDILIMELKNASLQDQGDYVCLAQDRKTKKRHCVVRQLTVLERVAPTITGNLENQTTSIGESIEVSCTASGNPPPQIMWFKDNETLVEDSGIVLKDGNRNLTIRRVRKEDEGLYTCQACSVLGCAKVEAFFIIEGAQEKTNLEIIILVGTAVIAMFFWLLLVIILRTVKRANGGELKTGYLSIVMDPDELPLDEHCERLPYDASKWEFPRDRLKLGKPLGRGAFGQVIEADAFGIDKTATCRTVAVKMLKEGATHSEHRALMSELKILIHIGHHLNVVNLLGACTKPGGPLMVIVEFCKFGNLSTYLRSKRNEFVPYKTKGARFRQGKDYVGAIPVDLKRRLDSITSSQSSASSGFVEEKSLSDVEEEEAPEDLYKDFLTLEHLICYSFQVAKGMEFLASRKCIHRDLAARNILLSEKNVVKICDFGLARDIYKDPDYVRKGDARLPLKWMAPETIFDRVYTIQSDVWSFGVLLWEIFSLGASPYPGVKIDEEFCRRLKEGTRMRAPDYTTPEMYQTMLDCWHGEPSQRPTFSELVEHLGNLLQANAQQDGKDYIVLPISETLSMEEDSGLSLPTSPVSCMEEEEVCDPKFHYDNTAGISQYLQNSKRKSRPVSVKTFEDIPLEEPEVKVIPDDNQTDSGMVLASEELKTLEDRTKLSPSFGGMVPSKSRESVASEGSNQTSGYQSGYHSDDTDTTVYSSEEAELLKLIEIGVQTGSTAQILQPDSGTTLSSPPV
Sequence of Flt1 (P17948 27-1338): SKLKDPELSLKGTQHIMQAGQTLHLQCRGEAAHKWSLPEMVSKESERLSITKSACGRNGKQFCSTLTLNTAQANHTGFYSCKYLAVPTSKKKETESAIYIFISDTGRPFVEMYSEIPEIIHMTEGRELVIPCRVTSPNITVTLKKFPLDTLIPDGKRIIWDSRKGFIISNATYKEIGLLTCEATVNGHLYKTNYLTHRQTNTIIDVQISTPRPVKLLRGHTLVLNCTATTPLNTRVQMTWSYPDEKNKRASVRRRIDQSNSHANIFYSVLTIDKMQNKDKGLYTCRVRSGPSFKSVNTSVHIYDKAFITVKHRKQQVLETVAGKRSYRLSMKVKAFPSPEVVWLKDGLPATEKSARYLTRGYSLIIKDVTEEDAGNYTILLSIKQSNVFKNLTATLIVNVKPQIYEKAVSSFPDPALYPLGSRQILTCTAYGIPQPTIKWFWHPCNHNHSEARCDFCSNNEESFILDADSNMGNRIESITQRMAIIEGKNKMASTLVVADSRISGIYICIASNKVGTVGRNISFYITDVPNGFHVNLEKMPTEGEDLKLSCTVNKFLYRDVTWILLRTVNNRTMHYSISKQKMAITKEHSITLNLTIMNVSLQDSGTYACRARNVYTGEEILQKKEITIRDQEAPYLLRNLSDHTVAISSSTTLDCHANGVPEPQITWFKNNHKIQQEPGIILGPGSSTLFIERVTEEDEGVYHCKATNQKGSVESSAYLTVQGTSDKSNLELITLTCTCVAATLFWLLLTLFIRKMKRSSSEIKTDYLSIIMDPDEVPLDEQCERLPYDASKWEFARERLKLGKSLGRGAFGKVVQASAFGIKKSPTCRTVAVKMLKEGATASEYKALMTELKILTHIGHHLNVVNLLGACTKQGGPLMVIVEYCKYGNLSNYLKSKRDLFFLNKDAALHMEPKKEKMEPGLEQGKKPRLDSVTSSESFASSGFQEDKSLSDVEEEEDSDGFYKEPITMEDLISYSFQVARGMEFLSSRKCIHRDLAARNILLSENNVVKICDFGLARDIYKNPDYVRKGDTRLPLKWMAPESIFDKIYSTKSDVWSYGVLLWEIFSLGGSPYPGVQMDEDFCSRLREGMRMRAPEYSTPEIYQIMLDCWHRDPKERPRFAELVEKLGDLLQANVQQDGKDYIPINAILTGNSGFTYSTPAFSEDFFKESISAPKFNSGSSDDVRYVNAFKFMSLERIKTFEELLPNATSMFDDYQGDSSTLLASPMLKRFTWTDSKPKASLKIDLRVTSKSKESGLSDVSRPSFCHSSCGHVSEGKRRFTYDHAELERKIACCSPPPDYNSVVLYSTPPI
T2 sequence (P10721 552-948): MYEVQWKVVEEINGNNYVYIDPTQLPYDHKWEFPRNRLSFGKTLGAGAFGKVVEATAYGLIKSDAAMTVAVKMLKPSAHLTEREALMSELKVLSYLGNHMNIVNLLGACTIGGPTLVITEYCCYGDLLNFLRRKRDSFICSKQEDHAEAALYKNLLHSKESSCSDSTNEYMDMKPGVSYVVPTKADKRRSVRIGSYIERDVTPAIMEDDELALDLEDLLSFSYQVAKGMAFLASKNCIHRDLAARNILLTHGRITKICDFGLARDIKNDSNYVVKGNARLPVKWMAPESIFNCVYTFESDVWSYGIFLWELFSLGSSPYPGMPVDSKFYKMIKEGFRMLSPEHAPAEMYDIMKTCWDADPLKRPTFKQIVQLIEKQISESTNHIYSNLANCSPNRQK
Sequence of B-Raf V600E/T529I (P15056 whole entry T529I/V600E): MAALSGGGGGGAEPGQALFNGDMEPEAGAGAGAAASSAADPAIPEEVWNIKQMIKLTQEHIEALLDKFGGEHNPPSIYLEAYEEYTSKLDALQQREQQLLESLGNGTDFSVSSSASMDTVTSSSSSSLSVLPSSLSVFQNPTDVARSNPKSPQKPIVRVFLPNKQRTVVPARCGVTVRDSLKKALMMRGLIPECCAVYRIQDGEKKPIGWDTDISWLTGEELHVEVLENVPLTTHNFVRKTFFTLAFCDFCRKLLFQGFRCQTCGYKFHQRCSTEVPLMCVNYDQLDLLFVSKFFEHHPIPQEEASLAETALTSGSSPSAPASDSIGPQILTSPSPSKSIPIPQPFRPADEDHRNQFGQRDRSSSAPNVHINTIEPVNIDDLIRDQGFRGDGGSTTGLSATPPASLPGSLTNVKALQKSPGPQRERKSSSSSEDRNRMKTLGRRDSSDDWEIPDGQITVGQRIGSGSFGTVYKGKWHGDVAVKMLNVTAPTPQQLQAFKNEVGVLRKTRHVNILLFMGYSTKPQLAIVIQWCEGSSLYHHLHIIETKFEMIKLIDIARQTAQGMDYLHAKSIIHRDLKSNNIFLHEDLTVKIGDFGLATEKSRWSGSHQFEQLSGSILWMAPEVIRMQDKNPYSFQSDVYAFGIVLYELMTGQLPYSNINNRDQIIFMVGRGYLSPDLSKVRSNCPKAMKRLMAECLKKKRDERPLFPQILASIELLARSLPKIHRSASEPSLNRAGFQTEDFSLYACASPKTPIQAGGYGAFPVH
Sequence of B-Raf (P15056 whole entry): as the sequence (P15056 whole entry T529I/V600E) above, with I529T, E600V counted along it
Sequence of B-Raf V600E (P15056 whole entry V600E): as the sequence (P15056 whole entry T529I/V600E) above, with I529T counted along it

Cn1cc(-c2cnc3[nH]cc(Cc4cc(F)c(OCc5nc6ccccc6[nH]5)cc4Cl)c3c2)cn1 [P-2109, 2-{5-Chloro-2-fluoro-4-[5-(1-methyl-1H-pyrazol-4-yl)-1H-pyrrolo[2,3-b]pyridin-3-ylmethyl]-phenoxymethyl}-1H-benzoimidazole]
≤ 10 µM: Flt1 | Fms | Kdr | Kit | Src | TrkA | HGK

COc1cnc2[nH]cc(C(=O)c3c(Cl)ccc(OCC(F)(F)F)c3Cl)c2c1 [P-2154, [2,6-Dichloro-3-(2,2,2-trifluoro-ethoxy)-phenyl]-(5-methoxy-1H-pyrrolo[2,3-b]pyridin-3-yl)-methanone]
≤ 10 µM: B-Raf V600E/T529I | Flt1 | Fms | Kdr

Cn1cc(-c2cnc3[nH]cc(C(=O)c4c(F)ccc(OCC(F)(F)F)c4Cl)c3c2)cn1 [P-2145, [2-Chloro-6-fluoro-3-(2,2,2-trifluoro-ethoxy)-phenyl]-[5-(1-methyl-1H-pyrazol-4-yl)-1H-pyrrolo[2,3-b]pyridin-3-yl]-methanone]
≤ 10 µM: B-Raf | Btk | Flt1 | Fms | Kdr | Kit | Src | TrkA

COc1cc(Cc2c[nH]c3ncccc23)c(Cl)cc1OCc1ccc(Cl)cc1F [P-2166, 3-[2-chloro-4-(4-chloro-2-fluoro-benzyloxy)-5-methoxy-benzyl]-1H-pyrrolo[2,3-b]pyridine]
≤ 10 µM: B-Raf V600E/T529I | Fms | Kdr

Cn1cc(-c2cnc3[nH]cc(Cc4cc(F)c(OCc5nc6ccccc6[nH]5)cc4F)c3c2)cn1 [P-2108, 2-{2,5-Difluoro-4-[5-(1-methyl-1H-pyrazol-4-yl)-1H-pyrrolo[2,3-b]pyridin-3-ylmethyl]-phenoxymethyl}-1H-benzoimidazole]
≤ 10 µM: Flt1 | Fms | Kdr | Kit | Src | TrkA

COCCOc1ccc(F)c(Cc2c[nH]c3ncc(Cl)cc23)c1Cl [P-2157, 5-Chloro-3-[2-chloro-6-fluoro-3-(2-methoxy-ethoxy)-benzyl]-1H-pyrrolo[2,3-b]pyridine]
≤ 10 µM: FGFR | Fms | Kdr | Kit | Met

O=C(c1ccc(OCc2ccc(Cl)cc2)c(F)c1)c1c[nH]c2ncccc12 [P-1897, [4-(4-chloro-benzyloxy)-3-fluoro-phenyl]-(1H-pyrrolo[2,3-b]pyridin-3-yl)-methanone]
≤ 10 µM: Jnk1

Fc1cc(Cc2c[nH]c3ncccc23)ccc1OCc1ccc(Cl)cc1 [P-1896, 3-[4-(4-Chloro-benzyloxy)-3-fluoro-benzyl]-1H-pyrrolo[2,3-b]pyridine]
≤ 10 µM: Jnk1

Cn1cc(-c2cnc3[nH]cc(Cc4cc(Cl)c(OCc5nc6ccccc6[nH]5)cc4F)c3c2)cn1 [P-2117, 2-{2-Chloro-5-fluoro-4-[5-(1-methyl-1H-pyrazol-4-yl)-1H-pyrrolo[2,3-b]pyridin-3-ylmethyl]-phenoxymethyl}-1H-benzoimidazole]
≤ 10 µM: Flt1 | Fms | Kdr | Kit | Src | TrkA

COc1cc(Cc2c[nH]c3ncccc23)ccc1OCc1ccc(Cl)cc1 [P-1247, 3-(4-(4-chlorobenzyloxy)-3-methoxybenzyl)-1H-pyrrolo[2,3-b]pyridine]
≤ 10 µM: B-Raf | B-Raf V600E | c-Raf-1 | Fak | Flt1 | Fms | Kit | Src

Fc1cc(Cc2c[nH]c3ncc(Cl)cc23)c(Cl)cc1OCc1cccnc1 [P-2156, 5-Chloro-3-[2-chloro-5-fluoro-4-(pyridin-3-ylmethoxy)-benzyl]-1H-pyrrolo[2,3-b]pyridine]
≤ 10 µM: B-Raf V600E/T529I | Fms | Kdr | Kit

Cn1cc(-c2cnc3[nH]cc(C(=O)c4c(Cl)ccc(OCC(F)(F)F)c4Cl)c3c2)cn1 [P-2151, [2,6-Dichloro-3-(2,2,2-trifluoro-ethoxy)-phenyl]-[5-(1-methyl-1H-pyrazol-4-yl)-1H-pyrrolo[2,3-b]pyridin-3-yl]-methanone]
≤ 10 µM: B-Raf | B-Raf V600E/T529I | Flt1 | Fms | Kdr | Kit | Src

Cn1cc(-c2cnc3[nH]cc(Cc4c(Cl)ccc(OCC(F)(F)F)c4Cl)c3c2)cn1 [P-2152, 3-[2,6-Dichloro-3-(2,2,2-trifluoro-ethoxy)-benzyl]-5-(1-methyl-1H-pyrazol-4-yl)-1H-pyrrolo[2,3-b]pyridine]
≤ 10 µM: B-Raf V600E/T529I | Fms | Kdr
